According to US4880841A, “Process of producing phenethylamine derivatives” (Yamanouchi Pharmaceutical Co., Ltd., priority 1980, dated 1989):
Where two headings read alike, the source gives them in different places.

Experiments:
[1] = Antihypertensive effects in spontaneously hypertensive rats (oral administration, tail cuff method); assay type: in vivo; details: 30 mg/kg P.O., spontaneously hypertensive rats with systolic blood pressure higher than 150 mmHg
Description: (§1) The pharmacological effects of the compounds of this invention were determined by the following experiments. The effects of the typical compounds of this invention were compared with those of 5-{1-hydroxy-2-[2-(2-methoxyphenoxy)ethylamino]ethyl}-2-methylbenzenesulfonamide (referred to as "Compound A") which is one of the typical compounds disclosed in British Pat. No. 2,006,772 and phentolamine.
B. Antihypertensive effects in spontaneously hypertensive rats:
Oral administration:--The systolic blood pressure was measured indirectly by the tail cuff method using a programmed electrosphygmanometer (Nacro-Bio-Systems Inc., PE-300) on spontaneously hypertensive rats having the systolic blood pressure of higher than 150 mmHg, the results being shown in Table II.

α-adrenergic = experiment: α-Adrenergic blocking action: antagonism of the hypertensive response to phenylephrine in anesthetized rats; assay type: in vivo; details: Rattus norvegicus, iv, read-out: α-blocking activity (rat) ED50 (mg/kg) i.v.
Description: as §1
A. α-Adrenergic blocking action:
The blood pressure was measured in the rats anesthetized with urethane and treated with pentolinium. The effects of the test samples (intravenous injection) to antagonize the hypertensive response to phenylephrine (10 μg/Kg i.v.) were measured and the results were shown in Table I.

[2] = rats anesthetized with urethane and treated with pentolinium, i.v. test sample, phenylephrine 10 μg/Kg i.v.

| SMILES | change in systolic blood pressure (mm Hg) at stated dose P.O. [1] [mm Hg] | ED50 (α-adrenergic; [2]) [mg/kg] | ED50 (α-adrenergic) [mg/kg] |
| --- | --- | --- | --- |
| COc1ccccc1OCCNCC(O)c1ccc(C)c(S(N)(=O)=O)c1 (stereo not shown) [Compound A, 5-{1-hydroxy-2-[2-(2-methoxyphenoxy)ethylamino]ethyl}-2-methylbenzenesulfonamide, reference compound] | -30 | 0.032 | – |
| COc1ccccc1OCCNCC(O)c1ccc(C)c([S+](C)[O-])c1.O=C(O)C(=O)O (stereo not drawn) [Example 5, α-{[2-(2-Methoxyphenoxy)ethylamino]methyl}-4-methyl-3-methylsulfinylbenzenemethanol oxalate] | -60 | 0.045 | – |
| CCOc1ccccc1OCCNC(C)Cc1ccc(OC)c(SC)c1.Cl (stereo not shown) [Example 8, 4-{2-[2-(2-Ethoxyphenoxy)ethylamino]-2-methylethyl}-2-(methylthio)anisole hydrochloride] | -48 | – | 0.0019 |
| CCOc1ccccc1OCCNC(C)Cc1ccc(OC)c(S(C)(=O)=O)c1.Cl (stereo not shown) [Example 12, 4-{2-[2-(2-Ethoxyphenoxy)ethylamino]-2-methylethyl}-2-(methylsulfonyl)anisole hydrochloride] | -58 | – | 0.00014 |
| Cc1ccc(N(CC2=NCCN2)c2cccc(O)c2)cc1 [phentolamine, reference compound] | -53 | 0.061 | – |
